Literature values in US20100197666A1, “(THIO) -CARBAMOYL-CYCLOHEXANE DERIVATIVES AND METHOD FOR TREATING SCHIZOPHRENIA” (priority 2007, published 2010).

Experiments:
Conditions in all cases: background statement; cited from earlier work
histamine H1 = histamine H1 (Homo sapiens, UniProt P35367)
5-HT2C = 5-HT2C (Homo sapiens, UniProt P28335)
[1] = system: adrenergic receptor sites

Sequence of 5-HT2C (P28335 33-458, species assumed): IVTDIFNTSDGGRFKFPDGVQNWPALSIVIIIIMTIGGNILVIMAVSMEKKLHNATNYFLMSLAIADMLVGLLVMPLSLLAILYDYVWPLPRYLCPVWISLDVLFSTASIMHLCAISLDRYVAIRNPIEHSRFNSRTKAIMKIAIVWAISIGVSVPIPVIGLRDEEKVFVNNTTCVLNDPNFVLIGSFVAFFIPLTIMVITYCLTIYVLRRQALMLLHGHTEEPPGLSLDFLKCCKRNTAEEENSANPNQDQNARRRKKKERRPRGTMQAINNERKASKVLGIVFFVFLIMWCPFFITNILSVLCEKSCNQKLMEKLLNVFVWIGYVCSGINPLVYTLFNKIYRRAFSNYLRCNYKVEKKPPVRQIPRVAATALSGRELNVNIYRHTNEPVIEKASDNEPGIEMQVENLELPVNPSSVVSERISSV
Sequence of histamine H1 (P35367 whole entry): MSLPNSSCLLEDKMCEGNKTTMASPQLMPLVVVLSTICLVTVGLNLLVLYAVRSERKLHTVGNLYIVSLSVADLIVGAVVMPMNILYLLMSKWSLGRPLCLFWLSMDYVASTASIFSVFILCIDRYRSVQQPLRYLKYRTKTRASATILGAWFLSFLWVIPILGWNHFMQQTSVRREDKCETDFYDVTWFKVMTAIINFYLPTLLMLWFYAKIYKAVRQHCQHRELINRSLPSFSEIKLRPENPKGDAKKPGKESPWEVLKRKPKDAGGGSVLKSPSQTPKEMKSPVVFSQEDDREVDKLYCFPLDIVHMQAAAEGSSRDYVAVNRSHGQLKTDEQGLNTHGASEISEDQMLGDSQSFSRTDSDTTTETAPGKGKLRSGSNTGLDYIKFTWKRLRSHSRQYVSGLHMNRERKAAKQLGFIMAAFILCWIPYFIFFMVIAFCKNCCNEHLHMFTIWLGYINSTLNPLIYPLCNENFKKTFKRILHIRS

CN(C)C(=O)NC1CCC(CCN2CCN(c3cccc(Cl)c3Cl)CC2)CC1.Cl (stereo not drawn) [trans-4-{2-[4-(2,3-dichlorophenyl)-piperazin-1-yl]-ethyl}-N,N-dimethylcarbamoyl-cyclohexylamine hydrochloride]
low potency: potency at histamine H1 receptor site (histamine H1) | potency at 5-HT2C receptor site (5-HT2C) | potency at adrenergic receptor sites [1]
